Experimental data reported in ChEMBL document CHEMBL4028815, “Novel phosphonate analogs of sulforaphane: Synthesis, in vitro and in vivo anticancer activity” (Eur J Med Chem, 2017).
The source made the active and inactive calls. No cut-off for these calls is given here.

Experiments:
LoVo [1] = assay: Potency index, ratio of sulforaphane IC50 to compound IC50 for human LoVo cells; assay type: functional
LoVo/DX [2] = assay: Induction of apoptosis in human LoVo/DX cells assessed as late apoptotic cells at 15 uM after 24 hrs by APC-Annexin-V/propidium iodide staining based flow cytometric method relative to control; assay type: functional
[3] = Cytotoxicity against human LoVo/DX cells assessed as cell death at >15 uM after 24 hrs; assay type: cell-based
LoVo [4] = assay: Induction of apoptosis in human LoVo cells assessed as increase in caspase3/7 activity at 15 uM using Ac-DEVD-ACC as substrate pretreated for 24 hrs followed by substrate addition measured for 2 hrs by fluorescence assay relative to control; assay type: functional
Mus musculus [5] = assay: Toxicity in BALB/c mdb mouse implanted with mouse 4T1 cells assessed as serum ALT level at 450 umol/kg, ip administered five times weekly measured at 29 day post cell innoculum (reference value: 23.8 +/- 2.2 U/L); assay type: organism-based; details: in vivo, 696 h
LoVo [6] = assay: Cytotoxicity against human LoVo cells after 72 hrs by sulforhodamine B assay; assay type: functional, cell-based
Mus musculus [7] = assay: Toxicity in BALB/c mdb mouse implanted with mouse 4T1 cells assessed as spleen weight at 450 umol/kg, ip administered five times weekly measured at 29 day post cell innoculum (reference value: 0.603 +/- 0.133 g); assay type: organism-based; details: in vivo, 696 h
Mus musculus [8] = assay: Toxicity in BALB/c mdb mouse implanted with mouse 4T1 cells assessed as body weight loss at 450 umol/kg, ip administered five times weekly measured 3 times weekly during compound dosing; assay type: organism-based; details: in vivo
LoVo [9] = assay: Induction of apoptosis in human LoVo cells assessed as increase in caspase3/7 activity at >15 uM using Ac-DEVD-ACC as substrate pretreated for 24 hrs followed by substrate addition measured for 2 hrs by fluorescence assay; assay type: functional, cell-based
Mus musculus [10] = assay: Toxicity in BALB/c mdb mouse implanted with mouse 4T1 cells assessed as WBC level at 450 umol/kg, ip administered five times weekly measured at 29 day post cell innoculum (reference value: 212.3 +/- 82.8 10^3/uL); assay type: organism-based; details: in vivo, 696 h
LoVo [11] = assay: Induction of apoptosis in human LoVo cells assessed as necrotic cells at 15 uM after 24 hrs by APC-Annexin-V/propidium iodide staining based flow cytometric method (reference value: 10%); assay type: functional
LoVo/DX [12] = assay: Cell cycle arrest in human LoVo/DX cells at 15 uM after 24 hrs by propidium iodide staining based flow cytometric method; assay type: functional
Mus musculus [13] = assay: Toxicity in BALB/c mdb mouse implanted with mouse 4T1 cells assessed as serum AST level at 450 umol/kg, ip administered five times weekly measured at 29 day post cell innoculum (reference value: 136 +/- 10.3 U/L); assay type: organism-based; details: in vivo, 696 h
Mus musculus [14] = assay: Toxicity in BALB/c mdb mouse implanted with mouse 4T1 cells assessed as serum PLT level at 450 umol/kg, ip administered five times weekly measured at 29 day post cell innoculum (reference value: 972 +/- 157 10^3/uL); assay type: organism-based; details: in vivo, 696 h
MES-SA = assay: Cytotoxicity against human MESSA cells after 72 hrs by sulforhodamine B assay; assay type: functional, cell-based
Mus musculus [15] = assay: Nephrotoxicity in BALB/c mdb mouse implanted with mouse 4T1 cells assessed as kidney weight at 450 umol/kg, ip administered five times weekly measured at 29 day post cell innoculum (reference value: 0.136 +/- 0.006 g); assay type: toxicity, organism-based; details: in vivo, 696 h
[16] = Cytotoxicity against human LoVo/DX cells after 72 hrs by sulforhodamine B assay; assay type: functional, cell-based
4T1 [17] = assay: Cytotoxicity against mouse 4T1 cells after 72 hrs by sulforhodamine B assay; assay type: functional, cell-based; details: 4T1, 72 h
LoVo [18] = assay: Cytotoxicity against human LoVo cells assessed as cell death at >15 uM after 24 hrs; assay type: cell-based
Mus musculus [19] = assay: Toxicity in BALB/c mdb mouse implanted with mouse 4T1 cells assessed as body weight loss at 450 umol/kg, ip administered five times weekly measured on day 11; assay type: organism-based; details: in vivo
Mus musculus [20] = assay: Toxicity in BALB/c mdb mouse implanted with mouse 4T1 cells assessed as serum creatinine level at 450 umol/kg, ip administered five times weekly measured at 29 day post cell innoculum (reference value: 9.3 +/- 1.2 umol/L); assay type: organism-based; details: in vivo, 696 h
4T1 [21] = assay: Anti-tumor activity against mouse 4T1 cells implanted in BALB/c mdb mouse assessed as tumor growth inhibition at 450 umol/kg, ip administered five times weekly measured on day 29 post cell innoculum relative to control; assay type: functional; details: 4T1, ip, 696 h, read-out: TGI
[22] = Resistance index, ratio of IC50 for human HL60/MX2 cells to IC50 for human HL60 cells; assay type: functional
MES-SA/Dx5 = assay: Cytotoxicity against human MESSA/DX5 cells after 72 hrs by sulforhodamine B assay; assay type: functional, cell-based; details: MES-SA/Dx5, 72 h
Mus musculus [23] = assay: Toxicity in BALB/c mdb mouse implanted with mouse 4T1 cells assessed as hematocrit at 450 umol/kg, ip administered five times weekly measured at 29 day post cell innoculum (reference value: 39.9 +/- 3.7 %); assay type: organism-based; details: in vivo, 696 h
Mus musculus [24] = assay: Toxicity in BALB/c mdb mouse implanted with mouse 4T1 cells assessed as serum urea level at 450 umol/kg, ip administered five times weekly measured at 29 day post cell innoculum (reference value: 3.8 +/- […]); assay type: organism-based; details: in vivo, 696 h
LoVo [25] = assay: Induction of apoptosis in human LoVo cells assessed as loss of mitochondrial membrane potential at 15 uM after 24 hrs by JC-1 staining based flow cytometric method relative to control; assay type: functional
Mus musculus [26] = assay: Toxicity in BALB/c mdb mouse implanted with mouse 4T1 cells assessed as RBC level at 450 umol/kg, ip administered five times weekly measured at 29 day post cell innoculum (reference value: 8.6 +/- 0.9 10^6/uL); assay type: organism-based; details: in vivo, 696 h
LoVo [27] = assay: Cell cycle arrest in human LoVo cells at 15 uM after 24 hrs by propidium iodide staining based flow cytometric method; assay type: functional
Mus musculus [28] = assay: Hepatotoxicity in BALB/c mdb mouse implanted with mouse 4T1 cells assessed as liver weight at 450 umol/kg, ip administered five times weekly measured at 29 day post cell innoculum (reference value: 1.2 +/- 0.13 g); assay type: toxicity, organism-based; details: in vivo, 696 h
LoVo [29] = assay: Induction of apoptosis in human LoVo cells assessed as increase in early apoptotic cells at 15 uM after 24 hrs by APC-Annexin-V/propidium iodide staining based flow cytometric method relative to control; assay type: functional
Mus musculus [30] = assay: Toxicity in BALB/c mdb mouse implanted with mouse 4T1 cells assessed as body weight loss at 450 umol/kg, ip administered five times weekly starting from day 15 post cell innoculum; assay type: organism-based; details: in vivo
HL60/MX2 = assay: Cytotoxicity against human HL60/MX2 cells after 72 hrs by sulforhodamine B assay; assay type: functional, cell-based; details: HL60/MX2, 72 h
LoVo [31] = assay: Potency index, ratio of benzyl isothiocyanate IC50 to compound IC50 for human LoVo cells; assay type: functional
HL-60 = assay: Cytotoxicity against human HL60 cells after 72 hrs by sulforhodamine B assay; assay type: functional, cell-based; details: HL-60, 72 h
LoVo/DX [32] = assay: Induction of apoptosis in human LoVo/DX cells assessed as increase in caspase3/7 activity at >15 uM using Ac-DEVD-ACC as substrate pretreated for 24 hrs followed by substrate addition measured for 2 hrs by fluorescence assay; assay type: functional, cell-based
4T1 [33] = assay: Anti-tumor activity against mouse 4T1 cells implanted in BALB/c mdb mouse assessed as lung metastasis at 450 umol/kg, ip administered five times weekly measured at 29 days post cell innoculum (reference value: 56 +/- 25); assay type: functional
A549 = assay: Cytotoxicity against human A549 cells after 72 hrs by sulforhodamine B assay; assay type: functional, cell-based; details: A549, 72 h
LoVo/DX [34] = assay: Induction of apoptosis in human LoVo/DX cells assessed as loss of mitochondrial membrane potential at 15 uM after 24 hrs by JC-1 staining based flow cytometric method relative to control; assay type: functional
Mus musculus [35] = assay: Toxicity in BALB/c mdb mouse implanted with mouse 4T1 cells assessed as hemoglobin level at 450 umol/kg, ip administered five times weekly measured at 29 day post cell innoculum (reference value: 15.1 +/- 1.5 g/dl); assay type: organism-based; details: in vivo, 696 h
BALB/3T3 = assay: Cytotoxicity against mouse BALB/3T3 cells after 72 hrs by sulforhodamine B assay; assay type: cell-based; details: BALB/3T3, 72 h
Mus musculus [36] = assay: Toxicity in BALB/c mdb mouse implanted with mouse 4T1 cells assessed as lung weight at 450 umol/kg, ip administered five times weekly measured at 29 day post cell innoculum (reference value: 0.2 +/- 0.018 g); assay type: organism-based; details: in vivo, 696 h
LoVo [37] = assay: Induction of apoptosis in human LoVo cells assessed as late apoptotic cells at 15 uM after 24 hrs by APC-Annexin-V/propidium iodide staining based flow cytometric method relative to control; assay type: functional
[38] = Induction of apoptosis in human LoVo/DX cells assessed as increase in caspase3/7 activity at 15 uM using Ac-DEVD-ACC as substrate pretreated for 24 hrs followed by substrate addition measured for 2 hrs by fluorescence assay relative to control; assay type: functional

CCOP(=O)(CCCCCCN=C=S)OCC
Ratio IC50 (LoVo [1]): 10 | Activity (LoVo/DX [2]): inactive | Activity [3]: Toxic | fold change (FC) (LoVo [4]): 3 | Activity (Mus musculus [5]): 28.2 U/L | IC50 (LoVo [6]): 2.1 µM | Activity (Mus musculus [7]): 0.493 g | Activity (Mus musculus [8]): <= 10% | Activity (LoVo [9]): inactive | Activity (Mus musculus [10]): 201.2 ×10³ /uL | Activity (LoVo [11]): Active | Activity (LoVo/DX [12]): Active | Activity (Mus musculus [13]): 142.5 U/L | Activity (Mus musculus [14]): 751 ×10³ /uL | IC50 (MES-SA): 10.4 µM | Activity (Mus musculus [15]): 0.14 g | IC50 [16]: 3.9 µM | IC50 (4T1 [17]): 3.1 µM | Activity (LoVo [18]): Toxic | Activity (Mus musculus [19]): > 5% | Activity (Mus musculus [20]): 9.3 µmol/L | inhibition in vivo at 450 µmol/kg (4T1 [21]): 7.1% | Ratio IC50 [22]: 7.8 | IC50 (MES-SA/Dx5): 9.9 µM | Activity (Mus musculus [23]): 47.7% | Activity (Mus musculus [24]): 4.6 mmol/L | Activity (LoVo [25]): Active | Activity (Mus musculus [26]): 10.1 ×10⁶ /uL | Activity (LoVo [27]): Active | Activity (Mus musculus [28]): 1.24 g | Activity (LoVo [29]): inactive | Activity (Mus musculus [30]): Non-Toxic | IC50 (HL60/MX2): 4 µM | Ratio IC50 (LoVo [31]): 5 | IC50 (HL-60): 0.5 µM | Activity (LoVo/DX [32]): inactive | Activity (4T1 [33]): 62 | IC50 (A549): 11.7 µM | Activity (LoVo/DX [34]): Active | Activity (Mus musculus [35]): 17.3 g/dL | IC50 (BALB/3T3): 17.5 µM | Activity (Mus musculus [36]): 0.219 g | Activity (LoVo [37]): inactive | fold change (FC) [38]: 3
